Measurements reported in the NIST ThermoML archive (doi:10.1016/j.fluid.2008.04.016).
“And” between values parts separate entries of the source, which are not always exact repeats. Identical values can stand only once.

Conditions: Liquid

CC(c1ccccc1)C(C)(C)C (stereo unspecified) [(1,2,2-trimethylpropyl)benzene]
Transpiration method
Conditions | vapor or sublimation pressure [kPa]
296 K | 0.04082
298.5 K | 0.04885
301 K | 0.05923
303.5 K | 0.07018
305.9 K | 0.08326
308.4 K | 0.09874
310.9 K | 0.1175
313.4 K | 0.1378
315.9 K | 0.1579
318.3 K | 0.185
320.8 K | 0.2193
323.3 K | 0.2551
325.8 K | 0.292

CC(C)(C)c1cc(C(C)(C)C)cc(C(C)(C)C)c1 [1,3,5-tri-tert-butylbenzene]
Transpiration method
Conditions | vapor or sublimation pressure [kPa]
352.15 K | 0.1311
354.45 K | 0.1544
356.65 K | 0.1766
358.95 K | 0.2039
359.15 K | 0.2029
361.35 K | 0.2292
362.05 K | 0.2407
363.45 K | 0.2577
365.15 K | 0.2888
367.45 K | 0.3257
370.15 K | 0.3801
372.65 K | 0.4354
374.95 K | 0.4944
377.35 K | 0.5671
379.55 K | 0.6317
382.65 K | 0.7387

Cc1cc(C(C)(C)C)cc(C(C)(C)C)c1 [3,5-di-tert-butyltoluene]
Transpiration method
Conditions | vapor or sublimation pressure [kPa]
308.25 K | 0.01666
310.65 K | 0.01931
313.35 K | 0.02366
315.45 K | 0.02884
317.95 K | 0.03401
320.45 K | 0.04037
323.05 K | 0.04906
325.55 K | 0.05841
327.95 K | 0.06909
330.55 K | 0.08097
333.05 K | 0.09656
335.55 K | 0.1131
338.15 K | 0.1302
340.65 K | 0.1549
343.05 K | 0.1773
345.55 K | 0.2067
348.1 K | 0.2475
350.45 K | 0.2845
353.05 K | 0.3277
355.65 K | 0.3743
358.15 K | 0.4358

Conditions | vapor or sublimation pressure
379.62 K | 1.318 kPa
379.86 K | 1.338 kPa
380.13 K | 1.358 kPa
393.09 K | 2.478 kPa
393.16 K | 2.483 kPa
393.19 K | 2.483 kPa
393.25 K | 2.488 kPa
402.75 K | 3.746 kPa
402.76 K | 3.746 kPa
402.77 K | 3.746 kPa
410.74 K | 5.173 kPa
410.81 K | 5.179 kPa
410.83 K | 5.184 kPa
410.85 K | 5.189 kPa
428.47 K | 10.05 kPa
428.48 K | 10.05 kPa
439.99 K | 14.94 kPa
440 K | 14.94 kPa
449.13 K | 20.06 kPa and 20.07 kPa
449.14 K | 20.06 kPa
449.15 K | 20.07 kPa
449.2 K | 20.09 kPa
449.21 K | 20.09 kPa
449.22 K | 20.1 kPa
456.12 K | 24.89 kPa
456.13 K | 24.89 kPa
456.14 K | 24.89 kPa
462.5 K | 30.11 kPa
462.52 K | 30.11 kPa
467.98 K | 35.24 kPa
472.54 K | 40.02 kPa
478.05 K | 46.5 kPa
478.06 K | 46.5 kPa
482.73 K | 52.54 kPa and 52.65 kPa and 52.66 kPa
482.76 K | 52.69 kPa
482.77 K | 52.7 kPa
487.56 K | 59.65 kPa
487.57 K | 59.67 kPa
487.58 K | 59.69 kPa
491.67 K | 66.2 kPa and 66.19 kPa
491.68 K | 66.21 kPa
495.5 K | 72.78 kPa
495.53 K | 72.83 kPa
498.98 K | 79.21 kPa
498.99 K | 79.22 kPa
503.36 K | 87.92 kPa and 87.93 kPa
505.71 K | 92.91 kPa
505.72 K | 92.91 kPa
508.06 K | 98.13 kPa
508.07 K | 98.13 kPa
508.08 K | 98.17 kPa
508.09 K | 98.18 kPa
509.38 K | 101.13 kPa and 101.14 kPa and 101.15 kPa
509.93 K | 102.44 kPa
509.94 K | 102.45 kPa
510.55 K | 103.88 kPa
510.56 K | 103.87 kPa and 103.88 kPa

CC(C)(C)c1ccc(C(C)(C)C)cc1 [1,4-bis(1,1-dimethylethyl)benzene]
Transpiration method
Conditions | vapor or sublimation pressure [kPa]
354.15 K | 0.3792
356.45 K | 0.4257
358.95 K | 0.4877
361.75 K | 0.5742
364.25 K | 0.6537
366.45 K | 0.7231
366.55 K | 0.7158
369.15 K | 0.8057
372.05 K | 0.9399
374.15 K | 1.036
376.45 K | 1.171
379.75 K | 1.376
381.75 K | 1.507
383.25 K | 1.647
